# Data taken from a melting point compilation (Tetko et al.; mined from patent text by program, amines drawn as free bases though some values may be those of a salt).
row,Structure (SMILES),melting point [°C]
1,CSCC(=O)[C@H](CCc1ccccc1)NC(=O)[C@H](CC(C)C)NC(=O)OCc1ccccc1,119 to 120
2,CCNC(=O)C1=C(C(=O)Nc2cc(OC3CCCC3)c(Cl)cc2F)CCCC1,187 to 189
3,CCCCCCCc1cnc(-c2ccc(CCC(=O)OCC(F)(F)C(F)F)cc2)nc1,42
4,O=Cc1cnccc1Cl,53 to 54
5,NC(=O)CCc1ccc([N+](=O)[O-])cc1,177 to 178
6,CCCc1cc(=O)c(C(=O)OC)c(C)[nH]1,171 to 172
7,CCC12CCC3C4CCC(OC)=CC4=CCC3C1C(OC(C)=O)CC2=O (stereo unspecified),190
8,COc1ccc(C#N)c2c1OC1(COCC1OC)C2 (stereo unspecified),151 to 156
9,CC(C)(C)OC(=O)c1ncn2c1[C@@H]1CCN1C(=O)c1c(I)cccc1-2,249 to 250
10,CC(C)(C)c1cc(C(=O)OCCC(=O)Oc2ccc(Cl)c([N+](=O)[O-])c2)cc(C(C)(C)C)c1O,106 to 108
11,Cc1ccc2c(c1)c(C1=C(Br)C(=O)N(C)C1=O)cn2C,107 to 110
12,Nc1nc(=O)[nH]c2cccnc12,> 300
13,CN(C)C(=S)SC(C[N+](=O)[O-])c1ccc(Cl)s1 (stereo unspecified),76 to 77
14,C=C1CC2(C)C(CCC2(C)O)C2CCC3=CC(=O)CCC3(C)C12 (stereo unspecified),155 to 157
15,CC(C)C[C@H](NC(=O)OC(C)(C)C)[C@@H](O)C[C@H](c1ccccc1)C(C)C,95 to 96
16,COc1ccc(CC2NC(=O)NC2=O)cc1 (stereo unspecified),174
17,CCOC(=O)c1cnc2onc(C)c2c1OCC,62
18,CC(C)(C)OC(=O)NO[C@H]1CC=C[C@H]1NC(=O)OCC(Cl)(Cl)Cl,83 to 84
19,CC(=O)OCCC(=C(c1ccccc1)c1ccccc1)c1ccccc1,81 to 83
20,O=C1CCCCC1c1ccccc1F (stereo unspecified),47 to 49
21,CCCc1cc(O)c(C#N)s1,78

row,Structure (SMILES),melting point [°C]
1,O=C(O)CC[C@@H](Cc1cn(Cc2ccccc2)c2ccccc12)NC(=O)CCCCCCc1ccccc1,130 to 132
2,CCC1(C)NC(=O)C(c2c(C)cc(C)cc2C)C1=O (stereo unspecified),137 to 142
3,NS(=O)(=O)c1nccn1-c1nccs1,157 to 162
4,CCn1c(=O)c2c(nc(/C=C/c3cc4c(c(OC(C)=O)c3)OCO4)n2C)n(CC)c1=O,> 270
5,COc1ccc2nc(CCCCCCC(=O)O)ccc2c1,84 to 87
6,CCCCCc1c(C(C)C)nc(C(C)C)c(CO)c1-c1ccc(C(C)C)cc1,42 to 44
7,O=C1C[C@@H]2[C@@H](/C=C/C(=O)C3CCCCC3)[C@H](OC(=O)c3ccccc3)C[C@@H]2O1,151 to 153
8,Cc1[nH]cnc1CSCCN(C)C(N)=S,149 to 151
9,CC(C)c1nn2ccccc2c1C(O)C(C)C (stereo unspecified),69
10,O=C(O)CCCCCc1nc2ccccc2s1,71 to 72
11,COc1ccc(N2CNC(=O)C23CCN(CCCN(c2ccccc2)c2ccccc2)CC3)cc1,156 to 158
12,CC(=Nc1ccccc1C(C)C)Nc1ccccc1C(C)C,94 to 96
13,CC(C)=CCC1(C(F)(F)F)C(=O)NC(=O)NC1=O,150 to 153
14,CCc1cc(NC(=O)c2nnn(Cc3ccc(OC)cc3)n2)c(O)c(C(C)=O)c1,159 to 160
15,C[C@@H](O)COc1c(N)ccc(F)c1F,47 to 48
16,CCC1=C(C#N)C(c2ccccc2OC)c2c[nH]nc2N1 (stereo unspecified),230 to 232
17,CC(C)[C@H](NC(=O)OCc1ccccc1)C(=O)NNS(=O)(=O)c1ccccc1,253 to 255
18,COC(=O)C1CSC=CCCCC(=O)N1 (stereo unspecified),160 to 161
19,CCCCCCCCOC(=O)NCC1CCC(CNC(=O)OCCCCCCCC)CC1 (stereo unspecified),120 to 122
20,O=C(O)C(Cl)(Cl)Cc1ccccc1,173 to 176

# The next lines start with the values.
row,melting point [°C],Structure (SMILES)
1,159 to 161,CC(=O)Nc1c(C(=O)c2cccc(OCc3ccccc3)c2)[nH]c2cc(Cl)ccc12
2,230 to 234,COc1ccc2c(c1)C(=O)N(c1ccc3c(ccn3C)n1)C2
3,96 to 98,O=C(Cl)C(Oc1cccc(C(F)(F)F)c1)c1ccc(Cl)cc1 (stereo unspecified)
4,254 to 266,CCOC(=O)c1ncc2[nH]c3ccc(C4CCCCC4)cc3c2c1COC
5,97 to 98,COc1ccccc1CCN1CC(=O)N(c2cnn(Cc3c(C)noc3C)c2)C1=O
6,82 to 83,CC(C)c1nn(-c2ccc(C(F)(F)F)cn2)cc1CCCOc1cccc(CC(=O)O)c1
7,171 to 172,CSc1nc(NCc2ccc(Br)cc2)n2ncc(C(C)C)c2n1
8,153 to 154,Cc1ccc(NC(=O)c2ccc(CBr)c(C(F)(F)F)c2)cc1Br
9,259 to 261,O=C(CC(=O)C(F)(F)F)Nc1cc(-c2cccs2)n[nH]1
10,172 to 173,CN(C)C(=O)c1cc2ccc3c(c2cc1Cn1cncn1)C(C)(C)C(=O)O3
11,242 to 245,Cc1cc(-c2nc3cc4c(cc3[nH]2)C(C)(C)CC(=O)N4)[nH]n1
12,107 to 108,Cc1oc(-c2ccccc2)nc1COc1ccc(Cn2cc(CCC(=O)O)c(Oc3ccc(C(F)(F)F)cn3)n2)cc1
13,118 to 120,Cc1onc2c1N(CCCOc1ccccc1)C(=O)COC2(C)c1ccccc1 (stereo unspecified)
14,158,COC(=O)c1ccc(NC(=O)c2sc3ccc(OC)cc3c2SC(C)C)cc1
15,237 to 238,CCCCc1ncc(C=C2C(=O)Nc3ccccc32)n1Cc1ccc(C(=O)O)cc1
16,291 to 293,O=C1CN(Cc2ccccc2)CC2=C1N=C1N=C(N3CCOCC3)NN1C2
17,100 to 101,CCOC(=O)c1cccc(-c2nc(-c3cc(C)oc3C)cs2)c1
18,203 to 207,Cc1nc(-c2cccc(-c3nc4sccn4c3-c3ccnc(N[C@@H]4CCCNC4)n3)c2)no1
19,178 to 180,CC(O)CC#Cc1cc(CN2CCOCC2)cc2c(=O)c(C(=O)NCc3ccc(Cl)cc3)cn(C)c12 (stereo unspecified)
20,162 to 165,COC(=O)CCCc1cc2cc(Cl)ccc2n1S(=O)(=O)c1ccc2c(c1)CCN2C(C)=O

row,melting point [°C],Structure (SMILES)
1,235 to 237,O=C(O)c1ccccc1N1CCN(CC(O)COc2ccccc2)CC1 (stereo unspecified)
2,118 to 119,CCOC(=O)c1cn(Cc2ccc(OCc3nc(-c4ccccc4)oc3C)cc2)nc1OCc1ccc(OCc2nc(-c3ccccc3)oc2C)cc1
3,105 to 107,COc1ccc(CC(=O)c2ccc(OC)c(OC)c2)cc1OC
4,177,O=C1O[C@@H](Cn2ccnn2)CN1c1ccc(-c2ccc(CO)nc2)c(F)c1
5,128 to 130,O=[N+]([O-])c1oc2c(CO)cccc2c1-c1ccccc1
6,115 to 117,CC(C)c1cc(OS(C)(=O)=O)cc(C(C)C)c1NC(=O)CN1CCN(CCSc2nc3ccccc3o2)CC1
7,90 to 93,Cc1cc2c(c(-c3cccc(Cl)c3)c1)OC(CN)C2 (stereo unspecified)
8,227,CCc1cc(-c2ccc(Cl)cc2)nc2c(C(=O)O)cnn12
9,47.4 to 50.1,C=CC(=O)OCCOc1ccc(-c2cccc(F)c2F)cc1
10,208 to 210,O=C1CC2(CCc3cc4ccccc4n3C2)C(=O)N1 (stereo unspecified)
11,118 to 120,O=C1NCCN=C1c1ccc(F)cc1
12,217,Cc1ccc(S(=O)(=O)N2[C@@H](C(=N)NO)CC[C@H]2c2ccc(F)cc2)cc1 (racemic)
13,257,Cc1cc(-c2ccc(C(F)(F)F)cc2)cn2c(-c3nc(-c4ccc(N)nc4)no3)cnc12
14,222 to 224,N#Cc1ccc2oc(-c3cccc(O)c3)cc2c1
15,178,COc1ccc2[nH]cc(/C(C#N)=C/c3ccn(C)n3)c2c1
16,199 to 200,O=c1[nH]c2cc(Cl)c(S(=O)CCN3CCC(Cc4ccc(F)cc4)CC3)cc2o1 (stereo unspecified)
17,173,c1cnc(NCCN2CCC(=C3c4sccc4CCn4ccnc43)CC2)nc1
18,230 to 232,CCOC(=O)c1cn(-c2ccc(F)cc2)c2nc(Cl)c(F)cc2c1=O
19,146 to 148,COc1ccc(C(CC(=O)O)N2Cc3ccccc3C2=O)cc1OC (stereo unspecified)
20,225 to 227,Cc1cc(N2CC=C(C(N)=O)CC2)c2cccc(Br)c2n1

row,melting point [°C],Structure (SMILES)
1,145 to 146,O=C(NCCc1ccccn1)c1cnc2cc3c(cc2c1Cl)OCO3
2,198 to 199,CCOc1ccc(S(=O)(=O)N2CCN(C)CC2)cc1-c1nc2c(COC)nn(C)c2c(=O)[nH]1
3,73 to 75,Cc1cccc(COc2ccc(C#N)cc2Cl)c1
4,258 to 260,Cc1nc(CCn2cnc3c2c(=O)[nH]c(=O)n3C)no1
5,227 to 228,O=C(O)c1cc(NCc2ccc(Cl)cc2)ccc1O
6,284 to 286,Cc1[nH]c(C)c(-c2ccc(Oc3ccc(OC(F)(F)F)cc3)cc2)c(=O)c1Br
7,155 to 156,CCOC(=O)c1ccc(-c2nc(COc3ccc(C=O)cc3OC)c(C)o2)s1
8,187 to 189,Cc1ccc(S(=O)(=O)Nc2nc(-c3cccc([N+](=O)[O-])c3)cs2)cc1
9,129,COc1cccc2c1[C@@H](Oc1cc(C(=O)N(C)C)cn3c(C)c(C)nc13)[C@H](O)C2 (relative stereo)
10,114 to 115,CS(=O)(=O)OC[C@H]1CCn2c(cc3ccccc32)C1
11,> 280,N#CC1=C(C2CCN(C(=O)c3ccccc3)CC2)Nc2n[nH]cc2C1c1cccc(C#N)c1Br (stereo unspecified)
12,140,CCOC(=O)c1ccc2oc(CN3CCN(c4ccc(Cl)nn4)CC3)nc2c1
13,118 to 120,O=C(O)COc1cccc(CCc2nc(-c3ccccc3)c(-c3ccccc3)s2)c1
14,279,Cc1csc2nc(N3CCC(C(=O)O)CC3)nc(NCc3ccc(F)cc3)c12
15,139 to 140,CCOC(=O)COc1cc(C(F)(F)F)c2c(=O)c(-c3ccccc3)coc2c1
16,292 to 296,Cc1[nH]c2ccc(C3=NNC(=O)NC3C)cc2c1C (stereo unspecified)
17,89,CCCCNC(=O)N(C)c1cccc(-c2ccc(C=C(OC)C(=O)OC)cc2)c1
18,230 to 233,COc1ccccc1NC(=O)Nc1nc(Oc2ccc3ccccc3c2)nc(N(CCC(=O)O)Cc2cccc3ccccc23)n1
19,207 to 210,CN1C(=O)NC(Cc2c[nH]c3ccccc23)C1=O (stereo unspecified)
20,146 to 147,CCC(C)c1ccc2c(c1)C(=O)N(c1ccc3c(ccn3C)c1)C2 (stereo unspecified)
